Assay results taken from patent publication US11976075B2, “Inhibitors of the MYST family of lysine acetyl transferases” (Isosterix, Inc., priority 2022, dated 2024).

What follows are molecules tested against T1, Recombinant KAT6A/MOZ (488-778) protein (Homo sapiens, UniProt Q92794) (assay: Kat6a AlphaLISA Inhibition Screening Assay). Details: 60′ pre-incubation; Table 2; read-out: Kat6A biochemical assay: IC50.
T1 construct: Recombinant KAT6A/MOZ (488-778) protein (Active motif, Catalog #81223); purchased Active Motif 81223
T1 sequence (Q92794 488-778): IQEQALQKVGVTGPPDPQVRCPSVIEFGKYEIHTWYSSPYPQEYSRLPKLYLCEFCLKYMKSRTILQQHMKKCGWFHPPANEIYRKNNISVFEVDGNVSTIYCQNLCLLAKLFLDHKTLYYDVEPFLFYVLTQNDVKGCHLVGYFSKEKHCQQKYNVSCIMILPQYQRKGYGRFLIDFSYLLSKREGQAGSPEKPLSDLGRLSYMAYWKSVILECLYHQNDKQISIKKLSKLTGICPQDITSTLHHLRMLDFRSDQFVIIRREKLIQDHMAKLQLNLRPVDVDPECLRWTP
Assay type: biochemical
Method: The Kat6a inhibitory activity of test compounds was determined using an Alpha Screen-based detection method. The assay reactions were conducted in a volume of 10 μL in Alpha Plate, White 384 well plate (cat #6008280, Perkin Elmer). The enzymatic reactions were performed in assay buffer pH 8.0 (50 mM Tris-HCl, 0.1 mM EDTA, 0.01% Tween-20, 1 mM Dithiothreitol, 0.1% BSA (fatty acid free) and 330 nM TSA (Trichostatin A)). 10 μL reaction volume consisting of 25 nM of Recombinant KAT6A/MOZ (488-778) protein (Active motif, Catalog #81223), 400 nM Acetyl coenzyme A (Catalog #A2056, Sigma), 200 nM of Histone H3 peptide [(amino acids 1-21), biotin-labeled (BPS Biosciences, Catalog #52011,)] and a 10-point dose response curve for test/tool compounds were prepared. Enzyme and compounds solution were pre-incubated in assay plate for 60 or 10 min at room temperature then substrate and Acetyl coenzyme A solution were added to the plate. After addition, the plate was sealed with adhesive seals and incubated for 120 minutes at room temperature.
After 120 minutes of incubation, 5 μL (10 μg/mL) of AlphaLISA anti-acetyl-Lysine acceptor beads (Perkin Elmer, Catalog #AL143C) were added to the plate and it was incubated for 60 minutes at room temperature. Then 10 μL (10 μg/mL) of Alpha Streptavidin donor beads (Perkin Elmer, Catalog #6760002S) were added to the plate which was further incubated for 60 minutes at room temperature. After incubation, the alpha signal was recorded by using Perkin Elmer Envision multi-mode reader.
NA means the compound was not active at the concentration tested. […] NT means not tested.

Compound | IC50 [µM]
C=CS(=O)(=O)NCc1ccn(Cc2cc(OC)c3c(NS(=O)(=O)CC4CCCCC4)noc3c2)n1 [Synthetic Example 24, N-((1-((3-((cyclohexylmethyl)sulfonamido)-4-methoxybenzo[d]isoxazol-6-yl)methyl)-1H-pyrazol-3-yl)methyl)ethenesulfonamide] | ≤ 10
C=CC(=O)NCc1cnn(Cc2cc(OC)c3c(NS(=O)(=O)CC4CCCCC4)noc3c2)c1 [Synthetic Example 4, N-((1-((3-((cyclohexylmethyl)sulfonamido)-4-methoxybenzo[d]isoxazol-6-yl)methyl)-1H-pyrazol-4-yl)methyl)acrylamide] | ≤ 10
C#CC(=O)N(C)Cc1cnn(Cc2cc(OC)c3c(NS(=O)(=O)c4ccccc4OC)noc3c2)c1 [Synthetic Example 45, N-((1-((4-methoxy-3-((2-methoxyphenyl)sulfonamido)benzo[d]isoxazol-6-yl)methyl)-1H-pyrazol-4-yl)methyl)-N-methylpropiolamide] | ≤ 10
C=CS(=O)(=O)N1C[C@H]2CN(Cc3cc(OC)c4c(NS(=O)(=O)c5ccccc5OC)noc4c3)C[C@H]2C1 [Synthetic Example 59] | ≤ 10
COc1ccccc1S(=O)(=O)Nc1noc2cc(Cn3cc(C(=O)NCC#N)cn3)cc(OC)c12 [Synthetic Example 62, N-(cyanomethyl)-1-((4-methoxy-3-((2-methoxyphenyl)sulfonamido)benzo[d]isoxazol-6-yl)methyl)-1H-pyrazole-4-carboxamide] | ≤ 10
C=CC(=O)NCc1ccnc(-c2cc(C)cc(C(=O)NNS(=O)(=O)c3c(OC)cccc3OC)c2)c1 [Synthetic Example 15, N-((2-(3-(2-((2,6-dimethoxyphenyl)sulfonyl)hydrazine-1-carbonyl)-5-methylphenyl)pyridin-4-yl)methyl)acrylamide] | ≤ 10

Same assay, conditions: 60′ pre-incubation; Table 3; read-out: Kat6A Biochemical assay: IC50

Compound | IC50 [µM]
C#CC(=O)NCc1cnn(Cc2cc(OC)c3c(NS(=O)(=O)c4cc(C(=O)NC)ccc4OC)noc3c2)c1 [compound 85, 4-methoxy-3-(N-(4-methoxy-6-((4-(propiolamidomethyl)-1H-pyrazol-1-yl)methyl)benzo[d]isoxazol-3-yl)sulfamoyl)-N-methylbenzamide] | ≤ 10
C=CC(=O)N1CCC(c2ccccc2-c2cc(OC)c3c(NS(=O)(=O)c4c(OC)cccc4OC)noc3c2)C1 (stereo not shown) [compound 75, N-(6-(2-(1-acryloylpyrrolidin-3-yl)phenyl)-4-methoxybenzo[d]isoxazol-3-yl)-2,6-dimethoxybenzenesulfonamide] | > 10
C#CC(=O)N1CCN(c2cccc(-c3cc(OC)c4c(NS(=O)(=O)N(C)C5CCCCC5)noc4c3)c2)CC1 [compound 112, 3-[[cyclohexyl(methyl)sulfamoyl]amino]-4-methoxy-6-[3-(4-prop-2-ynoylpiperazin-1-yl)phenyl]-1,2-benzoxazole] | ≤ 10
C#CC(=O)N1CCN(c2cccc(-c3cc(OC)c4c(NS(=O)(=O)c5ccccc5OC)noc4c3)c2)CC1 [compound 74, 2-methoxy-N-(4-methoxy-6-(3-(4-propioloylpiperazin-1-yl)phenyl)benzo[d]isoxazol-3-yl)benzenesulfonamide] | ≤ 10
C#CC(=O)NCCOCc1cc(OC)c2c(NS(=O)(=O)c3cc(CC)ccc3OC)noc2c1 [compound 88, N-(2-((3-((5-ethyl-2-methoxyphenyl)sulfonamido)-4-methoxybenzo[d]isoxazol-6-yl)methoxy)ethyl)propiolamide] | ≤ 10
C#CC(=O)N1CCN(c2cccc(-c3cc(OC)c4c(NS(=O)(=O)c5c(OC)cccc5OC)noc4n3)c2)CC1 [compound 113, 2,6-dimethoxy-N-(4-methoxy-6-(3-(4-propioloylpiperazin-1-yl)phenyl)isoxazolo[5,4-b]pyridin-3-yl)benzenesulfonamide] | ≤ 10
CCc1ccc(OC)c(S(=O)(=O)Nc2noc3cc(Cn4cc(CNS(C)(=O)=O)cn4)cc(OC)c23)c1 [compound 116] | ≤ 10
